Laboratory results as given in patent US20050239656A1, “Pyridine compounds or salts thereof and herbicides containing the same” (priority 2002, published 2005).

Columns and labels:
redroot pigweed [1] = test: Test Example 1: foliage treatment, upland pot test; format: in vivo, Amaranthus retroflexus L.; details: observed 18th to 23rd day, 0 = non-treated, 100 = complete kill
prickly sida [2] = test: Test Example 1: foliage treatment, upland pot test; format: in vivo, Sida spinosa L.; details: observed 18th to 23rd day, 0 = non-treated, 100 = complete kill
velvetleaf [3] = test: Test Example 1: foliage treatment, upland pot test; format: in vivo, Abutilon theophrasti MEDIC.; details: observed 18th to 23rd day, 0 = non-treated, 100 = complete kill
redroot pigweed [4] = test: Test Example 2: soil surface treatment, upland pot test; format: in vivo, Amaranthus retroflexus L.; details: observed 20th to 28th day
How it was run: (§1)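 Pre-emergence: the soil surface was sprayed 1 day after sowing with wettable powder or emulsifiable concentrate diluted in water at 1,500 L/ha, at a predetermined active ingredient amount. Growth control was scored visually 20–28 days after treatment, 0 (untreated) to 100 (complete kill).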

corn [5] = test: Test Example 1: foliage treatment, upland pot test; format: in vivo, Zea mays L.; details: crop, observed 18th to 23rd day, 0 = non-treated, 100 = complete kill
How it was run: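 In this upland pot foliage test, corn plants at 2.1 to 3.2 leaf stages were sprayed by a small size sprayer. The spray was a conventionally formulated wettable powder or emulsifiable concentrate weighed to a set active ingredient amount, diluted in water at 500 L/ha, plus 0.1% (v/v) agricultural spreader. Visual assessment on days 18 to 23 gave growth controlling degree (%), where 0 equals untreated and 100 means complete kill.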

rice [6] = test: Test Example 1: foliage treatment, upland pot test; format: in vivo, Oryza sativa L.; details: crop, observed 18th to 23rd day, 0 = non-treated, 100 = complete kill
How it was run: (§2)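 Each plant species was sprayed once on its foliage, with wheat at 1.3–2.4, soybean at 0.1–0.4, barnyardgrass at 1.3–2.8 and rice at 1.2–2.6 leaves. Visual ratings of growth inhibition, 0 to 100%, followed 18–23 days later.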

japanese ribbon wapato = test: Test Example 3: paddy pot test, application under submerged conditions; format: in vivo, Sagittaria pygniaea; details: submerged application at primary leaf stage, visually observed 14 days after application, 0 = non-treated, 100 = complete kill
How it was run: (§3)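 After sowing seeds and planting wapato tubers in flooded paddy soil, an aqueous dilution of the formulated compound was added to the 3–4 cm flood water at early leaf stage. Percent growth control relative to the untreated plot was assessed visually on day 14.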

rice [7] = test: Test Example 2: soil surface treatment, upland pot test; format: in vivo, Oryza sativa L.; details: observed 20th to 28th day
How it was run: as §1

velvetleaf [8] = test: as above; format: in vivo, Abutilon theophrasti MEDIC.; details: observed 20th to 28th day
How it was run: as §1

rice (var. Nihonbare) = test: Test Example 3: paddy pot test, transplanted rice; format: in vivo, Oryza sativa L.; details: applied 4th day after transplantation, visually observed 21st day after application, 0 = non-treated, 100 = complete kill
How it was run: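 Rice (2-leaf stage) was transplanted 3 cm deep into puddled, leveled paddy soil under 3–4 cm flooding. On day 4 after transplanting, diluted wettable powder or emulsifiable concentrate was pipetted onto the water at a predetermined active-ingredient dose. Growth control (0 = untreated, 100 = complete kill) was scored visually 21 days later.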

barnyardgrass [9] = test: Test Example 2: soil surface treatment, upland pot test; format: in vivo, Echinochloa crus-galli L.; details: observed 20th to 28th day
How it was run: as §1

barnyardgrass [10] = test: Test Example 1: foliage treatment, upland pot test; format: in vivo, Echinochloa crus-galli L.; details: observed 18th to 23rd day, 0 = non-treated, 100 = complete kill
How it was run: as §2

green foxtail [11] = test: Test Example 1: foliage treatment, upland pot test; format: in vivo, Setaria viridis L.; details: observed 18th to 23rd day, 0 = non-treated, 100 = complete kill
Source text: (§4) Upland field soil was put into a 1/170,000 ha pot, and seed of various plants were sown. Then, when the plants reached predetermined leaf stages ((1) barnyardgrass: 1.3 to 2.8 leaf stages, (2) crabgrass: 1.0 to 2.8 leaf stages, (3) green foxtail: 1.3 to 2.6 leaf stages, (4) redroot pigweed: 0.1 to 1.2 leaf stages, (5) prickly sida: 0.1 to 1.2 leaf stages, (6) velvetleaf: 0.1 to 1.2 leaf stages, (7) tall morningglory: 0.1 to 1.5 leaf stages, (8) rice: 1.2 to 2.6 leaf stages, (9) wheat: 1.3 to 2.4 leaf stages, (10) corn, 2.1 to 3.2 leaf stages, (11) soybean: 0.1 to 0.4 leaf stage), a wettable powder or emulsifiable concentrate having the compound of the present invention formulated in accordance with a usual formulation method, was weighed so that the active ingredient would be a predetermined amount, and diluted with water in an amount of 500 L/ha. To the diluted solution, 0.1% (v/v) of agricultural spreader was added. The herbicide thus adjusted was applied by a small size sprayer for foliage treatment. On the 18th to 23rd days after the application of the herbicide, the growth of the respective plants was visually observed, and the herbicidal effects were evaluated by the growth controlling degrees (%) ranging from 0 (equivalent to the non-treated plot) to 100 (complete kill), whereby the results shown in Table 3, were obtained.

soybean [12] = test: Test Example 1: foliage treatment, upland pot test; format: in vivo, Glycine max Merr.; details: crop, observed 18th to 23rd day, 0 = non-treated, 100 = complete kill
How it was run: as §2

corn [13] = test: Test Example 2: soil surface treatment, upland pot test; format: in vivo, Zea mays L.; details: observed 20th to 28th day
How it was run: as §1

japanese bulrush = test: Test Example 3: paddy pot test, application under submerged conditions; format: in vivo, Scirpus juncoides; details: submerged application at 0.5 leaf stage, visually observed 14 days after application, 0 = non-treated, 100 = complete kill
How it was run: as §3

crabgrass [14] = test: Test Example 2: soil surface treatment, upland pot test; format: in vivo, Digitaria sanguinalis L.; details: observed 20th to 28th day
How it was run: as §1

prickly sida [15] = test: as above; format: in vivo, Sida spinosa L.; details: observed 20th to 28th day
How it was run: as §1

crabgrass [16] = test: Test Example 1: foliage treatment, upland pot test; format: in vivo, Digitaria sanguinalis L.; details: observed 18th to 23rd day, 0 = non-treated, 100 = complete kill
Source text: as §4

soybean [17] = test: Test Example 2: soil surface treatment, upland pot test; format: in vivo, Glycine max Merr.; details: observed 20th to 28th day
How it was run: as §1

green foxtail [18] = test: as above; format: in vivo, Setaria viridis L.; details: observed 20th to 28th day
How it was run: as §1

barnyardgrass [19] = test: Test Example 3: paddy pot test, application under submerged conditions; format: in vivo, Echinochloa crus-galli L.; details: active ingredient 250 g/ha; submerged application at 0.5 leaf stage; visually observed 14 days after application; 0 = non-treated, 100 = complete kill
How it was run: as §3

Row | Compound | Growth controlling degree (%) Redroot pigweed (redroot pigweed [4]; active ingredient 500 g/ha) [%] | Growth controlling degree (%) Japanese ribbon wapato (japanese ribbon wapato; active ingredient 500 g/ha) [%] | Growth controlling degree (%) Rice (rice [7]; active ingredient 500 g/ha) [%] | Growth controlling degree (%) Velvetleaf (velvetleaf [8]; active ingredient 500 g/ha) [%] | Growth controlling degree (%) Rice (rice (var. Nihonbare); active ingredient 500 g/ha) [%] | Growth controlling degree (%) Barnyardgrass (barnyardgrass [9]; active ingredient 500 g/ha) [%] | Growth controlling degree (%) Corn (corn [13]; active ingredient 500 g/ha) [%] | Growth controlling degree (%) Japanese bulrush (japanese bulrush; active ingredient 500 g/ha) [%] | Growth controlling degree (%) Crabgrass (crabgrass [14]; active ingredient 500 g/ha) [%] | Growth controlling degree (%) Prickly sida (prickly sida [15]; active ingredient 500 g/ha) [%] | Growth controlling degree (%) Soyabean (soybean [17]; active ingredient 500 g/ha) [%] | Growth controlling degree (%) Green foxtail (green foxtail [18]; active ingredient 500 g/ha) [%] | Growth controlling degree (%) Redroot pigweed (redroot pigweed [1]; active ingredient 500 g/ha) [%] | Growth controlling degree (%) Prickly sida (prickly sida [2]; active ingredient 500 g/ha) [%] | Growth controlling degree (%) Velvetleaf (velvetleaf [3]; active ingredient 500 g/ha) [%] | Growth controlling degree (%) Corn (corn [5]; active ingredient 500 g/ha) [%] | Growth controlling degree (%) Rice (rice [6]; active ingredient 500 g/ha) [%] | Growth controlling degree (%) Barnyardgrass (barnyardgrass [10]; active ingredient 500 g/ha) [%] | Growth controlling degree (%) Green foxtail (green foxtail [11]; active ingredient 500 g/ha) [%] | Growth controlling degree (%) Soybean (soybean [12]; active ingredient 500 g/ha) [%] | further results
1 | CC(C)C(c1cnccc1C(F)(F)F)N(C)C(=O)Cc1ccc(F)cc1F (stereo not shown) [I-18] | 80 | 90 | 20 | 80 | 10 | 100 | 50 | 90 | 100 | 80 | 50 | 100 | – | – | – | – | – | – | – | – | Growth controlling degree (%) Redroot pigweed (redroot pigweed [1]; active ingredient 1000 g/ha): 90%; Growth controlling degree (%) Prickly sida (prickly sida [2]; active ingredient 1000 g/ha): 90%; Growth controlling degree (%) Velvetleaf (velvetleaf [3]; active ingredient 1000 g/ha): 90%; Growth controlling degree (%) Corn (corn [5]; active ingredient 1000 g/ha): 80%; Growth controlling degree (%) Rice (rice [6]; active ingredient 1000 g/ha): 50%; Growth controlling degree (%) Barnyardgrass (barnyardgrass [10]; active ingredient 1000 g/ha): 90%; Growth controlling degree (%) Green foxtail (green foxtail [11]; active ingredient 1000 g/ha): 70%; Growth controlling degree (%) Soybean (soybean [12]; active ingredient 1000 g/ha): 70%; Growth controlling degree (%) Crabgrass (crabgrass [16]; active ingredient 1000 g/ha): 90%
2 | CC(C)C(c1cnccc1C(F)(F)F)N(C)C(=O)Cc1cccc(F)c1F (stereo not shown) [I-19] | 80 | 95 | 10 | 80 | 35 | 95 | 30 | 95 | 100 | 98 | 30 | 100 | – | – | – | – | – | – | – | – | Growth controlling degree (%) Redroot pigweed (redroot pigweed [1]; active ingredient 1000 g/ha): 80%; Growth controlling degree (%) Prickly sida (prickly sida [2]; active ingredient 1000 g/ha): 80%; Growth controlling degree (%) Velvetleaf (velvetleaf [3]; active ingredient 1000 g/ha): 80%; Growth controlling degree (%) Corn (corn [5]; active ingredient 1000 g/ha): 50%; Growth controlling degree (%) Rice (rice [6]; active ingredient 1000 g/ha): 20%; Growth controlling degree (%) Barnyardgrass (barnyardgrass [10]; active ingredient 1000 g/ha): 80%; Growth controlling degree (%) Green foxtail (green foxtail [11]; active ingredient 1000 g/ha): 70%; Growth controlling degree (%) Soybean (soybean [12]; active ingredient 1000 g/ha): 90%; Growth controlling degree (%) Crabgrass (crabgrass [16]; active ingredient 1000 g/ha): 90%
3 | CC(C)C(c1cnccc1C(F)(F)F)N(C)C(=O)Cc1ccc(F)cc1 (stereo not shown) [I-21] | – | 100 | – | – | 40 | – | – | 98 | – | – | – | – | 90 | 90 | 95 | 30 | 20 | 80 | 70 | 70 | Growth controlling degree (%) Redroot pigweed (redroot pigweed [4]; active ingredient 250 g/ha): 90%; Growth controlling degree (%) Rice (rice [7]; active ingredient 250 g/ha): 40%; Growth controlling degree (%) Velvetleaf (velvetleaf [8]; active ingredient 250 g/ha): 70%; Growth controlling degree (%) Barnyardgrass (barnyardgrass [9]; active ingredient 250 g/ha): 60%; Growth controlling degree (%) Corn (corn [13]; active ingredient 250 g/ha): 50%; Growth controlling degree (%) Crabgrass (crabgrass [14]; active ingredient 250 g/ha): 98%; Growth controlling degree (%) Prickly sida (prickly sida [15]; active ingredient 250 g/ha): 80%; Growth controlling degree (%) Crabgrass (crabgrass [16]; active ingredient 500 g/ha): 95%; Growth controlling degree (%) Soyabean (soybean [17]; active ingredient 250 g/ha): 20%; Growth controlling degree (%) Green foxtail (green foxtail [18]; active ingredient 250 g/ha): 90%
4 | CC(C)C(c1cnccc1C(F)(F)F)N(C)C(=O)Cc1cccc(C(F)(F)F)c1F (stereo not shown) [I-29] | 70 | – | 30 | 70 | – | 100 | 20 | – | 99 | 98 | 10 | 100 | 80 | 80 | 80 | 10 | 10 | 60 | 60 | 50 | Growth controlling degree (%) Barnyardgrass (barnyardgrass [19]): 100%; Growth controlling degree (%) Japanese ribbon wapato (japanese ribbon wapato; active ingredient 250 g/ha): 10%; Growth controlling degree (%) Rice (rice (var. Nihonbare); active ingredient 250 g/ha): 10%; Growth controlling degree (%) Japanese bulrush (japanese bulrush; active ingredient 250 g/ha): 70%; Growth controlling degree (%) Crabgrass (crabgrass [16]; active ingredient 500 g/ha): 90%
5 | CC(C)C(c1cnccc1C(F)(F)F)N(C)C(=O)Cc1ccc(C(F)(F)F)cc1 (stereo not shown) [I-31] | 80 | – | 10 | 50 | – | 100 | 30 | – | 90 | 100 | 50 | 100 | 80 | 80 | 95 | 70 | 40 | 95 | 80 | 90 | Growth controlling degree (%) Barnyardgrass (barnyardgrass [19]): 100%; Growth controlling degree (%) Rice (rice (var. Nihonbare); active ingredient 250 g/ha): 20%; Growth controlling degree (%) Japanese bulrush (japanese bulrush; active ingredient 250 g/ha): 95%; Growth controlling degree (%) Crabgrass (crabgrass [16]; active ingredient 500 g/ha): 85%
